Results published in PubChem BioAssay (NCI).
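GI50 is the concentration that inhibits growth by half. TGI denotes the concentration required for complete inhibition of growth.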

Columns and labels:
Assay in all cases: NCI tumour cell line growth inhibition, 384-well format
[1] = test system: UACC-257 melanoma
[2] = test system: PC-3 prostate
[3] = test system: NCI-H460 NSCLC
[4] = test system: SN12C renal
[5] = test system: OVCAR-3 ovarian
[6] = test system: 786-0 renal
[7] = test system: SF-295 CNS
[8] = test system: SNB-75 CNS
[9] = test system: HCT-116 colon
[10] = test system: HCT-15 colon
[11] = test system: SK-MEL-28 melanoma
[12] = test system: HS 578T breast
[13] = test system: SK-MEL-5 melanoma
[14] = test system: SNB-19 CNS
[15] = test system: NCI-H23 lung
[16] = test system: K-562 leukemia
[17] = test system: TK-10 renal
[18] = test system: BT-549 breast
[19] = test system: KM12 colon
[20] = test system: MOLT-4 leukemia
[21] = test system: SK-OV-3 ovarian
[22] = test system: UACC-62 melanoma
[23] = test system: IGROV1 ovarian
[24] = test system: HOP-92 NSCLC
[25] = test system: U251 glioblastoma
[26] = test system: DU-145 prostate
[27] = test system: HT29 colon
[28] = test system: CAKI-1 renal

CC(C)[C@H]1C(=O)N[C@@H](CCCN=C(N)N)C(=O)NCC(=O)N[C@@H](CC(=O)O)C(=O)N[C@H](Cc2ccccc2)C(=O)N1C was tested, and the TGI [1] was > 100 µM, the GI50 [2] was > 100 µM and the TGI [2] was > 100 µM. For the same molecule, the GI50 [3] was 58.3 µM, the TGI [3] was > 100 µM and the GI50 [4] was > 100 µM. For the same molecule, the TGI [4] was > 100 µM, the GI50 [5] was 53.9 µM and the TGI [5] was > 100 µM. For the same molecule, the GI50 [6] was 7.76 µM, the TGI [6] was > 100 µM and the GI50 [7] was > 100 µM. The TGI [7] was > 100 µM, the GI50 [8] was 0.226 µM and the TGI [8] was 0.871 µM. The GI50 [9] was 26.7 µM, the TGI [9] was > 100 µM and the GI50 [10] was > 100 µM. The TGI [10] was > 100 µM, the GI50 [11] was > 100 µM and the TGI [11] was > 100 µM. For the same molecule, the GI50 [12] was 3.76 µM, the TGI [12] was > 100 µM and the GI50 [13] was > 100 µM. The TGI [13] was > 100 µM, the GI50 [14] was 15.7 µM and the TGI [14] was > 100 µM. For the same molecule, the GI50 [15] was > 100 µM, the TGI [15] was > 100 µM and the GI50 [16] was 37.7 µM. For the same molecule, the TGI [16] was > 100 µM, the GI50 [17] was 2 µM and the TGI [17] was > 100 µM. The GI50 [18] was 2.13 µM, the TGI [18] was > 100 µM and the GI50 [19] was 42.5 µM. For the same molecule, the TGI [19] was > 100 µM, the GI50 [20] was 5.83 µM and the TGI [20] was 18 µM. For the same molecule, the GI50 [21] was 41.8 µM, the TGI [21] was > 100 µM and the GI50 [22] was 70.8 µM. For the same molecule, the TGI [22] was > 100 µM, the GI50 [23] was 2.38 µM and the TGI [23] was > 100 µM. For the same molecule, the GI50 [24] was 6.51 µM, the TGI [24] was > 100 µM and the GI50 [25] was 8.88 µM. The TGI [25] was > 100 µM, the GI50 [26] was 8.01 µM and the TGI [26] was > 100 µM. The GI50 [27] was 53.1 µM, the TGI [27] was > 100 µM and the GI50 [28] was 0.72 µM. For the same molecule, the TGI [28] was 14.4 µM.
